{"source": "patent US20240239841A1", "about": "“PEPTIDE AND METHOD FOR TREATING PAIN USING THE SAME” (PELL BIO-MED TECHNOLOGY CO., LTD., priority 2019, published 2024)", "key": {"[1]": {"test_system": "ICR mice with CFA-induced arthritis (bilateral mechanical hyperalgesia)", "assay": "Paw withdrawal threshold (PWT) by von Frey Filament in CFA-induced arthritis mice", "conditions": "for PWT value of ipsilateral hind paw / PWT value of contralateral paw: 90 min after administration; for time of best antinociceptive effect after administration: peptide 3 mg/kg, morphine 10 mg/kg, PWT determined at 0, 30, 60, 90, 120 min"}, "[2]": {"test_system": "TNF-α", "assay": "Serum TNF-α by ELISA in CFA-induced arthritis mice after long-term oral administration", "format": "in vivo, ICR mice", "conditions": "3 mg/kg oral once a week, 4th to 12th week; serum at 12th week; vs water control; FIG. 1", "procedure": "(§1) On the other hand, the mice administered with water were served as the control group, which also comprised 6 mice. The mice in the experimental group and the control group were sacrificed on the 12th week after administration. The serum collection is conducted by cardiac puncture. The Mouse TNF-α Quantikine ELISA Kit (R&D System, MTA00B), Mouse IL-6 Quantikine ELISA Kit (R&D System, M600B) and enzyme-linked immunosorbent assay (ELISA) were used to determine and collect the serum concentration of TNF-α and IL-6 of mice in the experimental group and the control group."}, "[3]": {"test_system": "IL-6", "assay": "Serum IL-6 by ELISA in CFA-induced arthritis mice after long-term oral administration", "format": "in vivo, ICR mice", "conditions": "3 mg/kg oral once a week, 4th to 12th week; serum at 12th week; vs water control; FIG. 2", "procedure": "as §1"}, "[4]": {"test_system": "C57BL/6JNarl male mice (acetic acid-induced visceral pain)", "assay": "Acetic acid-induced writhing (abdominal constriction) assay", "format": "in vivo, C57BL/6JNarl mice", "conditions": "oral doses of 1 μg/kg and 10 mg/kg, among 0.1 μg/kg to 10 mg/kg tested; 10 min before 1% acetic acid; FIG. 9", "procedure": "(§2) For conducting nociceptive pain and acid-induced chronic widespread pain experiments, C57BL/6JNarl male mice (20 to 25 g) were housed in an environment with temperature control (24±0.5° C.) and 12-hour light-dark cycle (lights on during 08:00-20:00) and allowed free access to standard laboratory food and tap water. Animals were allowed to acclimatize for 20 to 30 min prior to experimental manipulations. Animal care and handling procedures were adopted in accordance with the International Association for the Study of Pain guidelines for those animals used in pain research, and the procedures were approved by the Committee for Ethics in Animal Research.\nAcid-induced abdominal constriction assay was performed in accordance with H. O. Collier, L. C. Dinneen, C. A. Johnson, C. Schneider, The abdominal constriction response and its suppression by analgesic drugs in the mouse. Br J Pharmacol Chemother 32, 295-310 (1968). In general, the mice from Preparation Example 3 were placed in a small observation chamber and habituated for 20 min. […] The numbers of abdominal constrictions in 30 min after acid injection were counted and the mean constriction numbers of mice of each group were calculated. […]"}, "[5]": {"test_system": "C57BL/6JNarl male mice (radiant heat tail-flick)", "assay": "Radiant heat tail-flick test", "format": "in vivo, C57BL/6JNarl mice", "conditions": "oral doses of 0.1 μg/kg, 0.3 μg/kg, 0.1 mg/kg, 1 mg/kg, 3 mg/kg and 10 mg/kg, among 0.01 μg/kg to 10 mg/kg tested; latency 10-90 min; FIG. 9", "procedure": "as §2\nThe radiant heat tail-flick test was modified in accordance with F. E. D'Amour, D. L. Smith, A method for determining loss of pain sensation. The Journal of Pharmacology and Experimental Therapeutics 72, 74-79 (1941). The 5 to 12 mice from Preparation Example 3 were placed and acclimatized in the restrainers for 30 min prior to the tail-flick test. […] The latency was recorded every 10 min during the indicated time period (10-90 min) after oral administration with different dosages of the peptide of SEQ ID NO: 1 (0.01 μg/kg, 0.03 μg/kg, 0.1 μg/kg, 0.3 μg/kg, 1 μg/kg, 0.01 mg/kg, 0.1 mg/kg, 1 mg/kg, 3 mg/kg, and 10 mg/kg). Then the latency during 10-90 min was calculated. […]"}}, "note": "Non-standard residues stand in square brackets, D forms with d. pGlu = O=C1CC[C@@H](C(=O)O)N1"}
{"compound": "CN1CC[C@]23c4c5ccc(O)c4O[C@H]2[C@@H](O)C=C[C@H]3[C@H]1C5", "note": "[morphine, reference compound]", "values": [{"measurement": "PWT value of ipsilateral hind paw", "setting": "[1]; morphine 10 mg/kg oral on 4th week, rose from 0.085±0.015 g, FIG. 3", "value": "0.64 ± 0.089", "unit": "g"}, {"measurement": "PWT value of contralateral paw", "setting": "[1]; morphine 10 mg/kg oral on 4th week, rose from 0.43±0.033 g, FIG. 4", "value": "1.96 ± 0.488", "unit": "g"}, {"measurement": "time of best antinociceptive effect after administration", "setting": "[1]; oral", "value": 90, "unit": "min"}]}
{"compound": "Glp Glu Thr Ala Val Ser Ser His Glu Gln Asp ([pGlu]ETAVSSHEQD-OH; SMILES CC(C)[C@H](NC(=O)[C@H](C)NC(=O)[C@@H](NC(=O)[C@H](CCC(=O)O)NC(=O)[C@@H]1CCC(=O)N1)[C@@H](C)O)C(=O)N[C@@H](CO)C(=O)N[C@@H](CO)C(=O)N[C@@H](Cc1c[nH]cn1)C(=O)N[C@@H](CCC(=O)O)C(=O)N[C@@H](CCC(N)=O)C(=O)N[C@@H](CC(=O)O)C(=O)O) [peptide of SEQ ID NO: 1]", "values": [{"measurement": "serum concentration of TNF-α", "setting": "[2]", "value": "not detected (ND)"}, {"measurement": "serum concentration of IL-6", "setting": "[3]", "value": "decreased compared to the control group"}, {"measurement": "antinociceptive effect in the acid-induced writhing experiment (antinociceptive activity %)", "setting": "[4]", "value": "best antinociceptive effect"}, {"measurement": "antinociceptive effect in the radiant heat tail-flick test (% MPE)", "setting": "[5]", "value": "best antinociceptive effect"}, {"measurement": "PWT value of ipsilateral hind paw", "setting": "[1]; 0.3 μg/kg oral, rose from 0.065 g, FIG. 7", "value": 1, "unit": "g"}, {"measurement": "PWT value of contralateral paw", "setting": "[1]; 0.3 μg/kg oral, rose from 0.32 g, FIG. 8", "value": 1, "unit": "g"}, {"measurement": "PWT value of ipsilateral hind paw", "setting": "[1]; 1 μg/kg oral, rose from 0.065 g, FIG. 7", "value": 0.6, "unit": "g"}, {"measurement": "PWT value of contralateral paw", "setting": "[1]; 1 μg/kg oral, rose from 0.32 g, FIG. 8", "value": 1.4, "unit": "g"}, {"measurement": "PWT value of ipsilateral hind paw", "setting": "[1]; 3 μg/kg oral, rose from 0.065 g, FIG. 7", "value": 0.16, "unit": "g"}, {"measurement": "PWT value of contralateral paw", "setting": "[1]; 3 μg/kg oral, rose from 0.32 g, FIG. 8", "value": 1, "unit": "g"}, {"measurement": "PWT value of ipsilateral hind paw", "setting": "[1]; 1 mg/kg oral once a week, 4th to 12th week, increased from 0.09 g, FIG. 5", "value": "0.5˜1 g"}, {"measurement": "PWT value of contralateral paw", "setting": "[1]; 1 mg/kg oral once a week, 4th to 12th week, increased from 0.4 g at 3rd week, FIG. 6", "value": "0.6˜ 1.2 g"}, {"measurement": "PWT value of ipsilateral hind paw", "setting": "[1]; 3 mg/kg oral once a week, 4th to 12th week, increased from 0.09 g of 3rd week, FIG. 5", "value": "0.63˜1 g"}, {"measurement": "PWT value of contralateral paw", "setting": "[1]; 3 mg/kg oral once a week, 4th to 12th week, increased from 0.4 g, FIG. 6", "value": "0.87˜1.27 g"}, {"measurement": "antinociceptive effects of 1 mg/kg and 3 mg/kg compared (PWT)", "setting": "[1]; oral, long-term administration once a week, 4th to 12th week", "value": "similar"}, {"measurement": "time of best antinociceptive effect after administration", "setting": "[1]; oral", "value": 90, "unit": "min"}, {"measurement": "PWT value of ipsilateral hind paw", "setting": "[1]; peptide 3 mg/kg oral on 4th week, rose from 0.07 g, FIG. 3", "value": "0.9 ± 0.156", "unit": "g"}, {"measurement": "PWT value of contralateral paw", "setting": "[1]; peptide 3 mg/kg oral on 4th week, rose from 0.5±0.047 g, FIG. 4", "value": "1.35 ± 0.193", "unit": "g"}, {"measurement": "antinociceptive effect compared with morphine (PWT)", "setting": "[1]; peptide 3 mg/kg oral vs morphine 10 mg/kg oral, lower amount required", "value": "antinociceptive effect similar to morphine"}]}
